Measurements as given in the NIST ThermoML archive (doi:10.1016/j.jct.2006.10.008).

What was measured:
[1] = xn = mol fraction of the nth substance listed; settings: 298.15 K, 101 kPa, Liquid
[2] = excess molar enthalpy (molar enthalpy of mixing); xn = mol fraction of the nth substance listed; settings: 298.15 K, 101 kPa, Liquid, Calvet calorimetry

CCCOC=O [propyl methanoate] + ClCCCCl
Settings | excess molar enthalpy [kcal/mol] | mass density [kg/m3]
[1], x1 = 0.0612 | – | 1161.75
[1], x1 = 0.1204 | – | 1145.46
[1], x1 = 0.1775 | – | 1129.76
[1], x1 = 0.2355 | – | 1113.91
[1], x1 = 0.2944 | – | 1097.92
[1], x1 = 0.3527 | – | 1082.1
[1], x1 = 0.4109 | – | 1066.46
[1], x1 = 0.4695 | – | 1050.7
[1], x1 = 0.5286 | – | 1034.93
[1], x1 = 0.5863 | – | 1019.65
[1], x1 = 0.6459 | – | 1003.85
[1], x1 = 0.7044 | – | 988.35
[1], x1 = 0.763 | – | 972.97
[1], x1 = 0.8214 | – | 957.74
[1], x1 = 0.8796 | – | 942.43
[1], x1 = 0.9386 | – | 927.1
[2], x1 = 0.0618 | -0.000717 | –
[2], x1 = 0.1342 | -0.00406 | –
[2], x1 = 0.2092 | -0.00951 | –
[2], x1 = 0.2838 | -0.0162 | –
[2], x1 = 0.3515 | -0.0231 | –
[2], x1 = 0.4148 | -0.0297 | –
[2], x1 = 0.4714 | -0.0358 | –
[2], x1 = 0.503 | -0.0397 | –
[2], x1 = 0.5539 | -0.0461 | –
[2], x1 = 0.6084 | -0.0502 | –
[2], x1 = 0.6696 | -0.0491 | –
[2], x1 = 0.7356 | -0.0441 | –
[2], x1 = 0.8024 | -0.0365 | –
[2], x1 = 0.8727 | -0.0258 | –
[2], x1 = 0.9394 | -0.0134 | –

ClCCCCCl [1,4-dichlorobutane] + CCCCOC=O
Settings | excess molar enthalpy [kcal/mol] | mass density [kg/m3]
[1], x2 = 0.0624 | – | 1118.28
[1], x2 = 0.1208 | – | 1103.88
[1], x2 = 0.1776 | – | 1089.9
[1], x2 = 0.2372 | – | 1075.3
[1], x2 = 0.346 | – | 1048.8
[1], x2 = 0.4096 | – | 1033.38
[1], x2 = 0.4679 | – | 1019.27
[1], x2 = 0.5213 | – | 1006.41
[1], x2 = 0.6434 | – | 977.11
[1], x2 = 0.7039 | – | 962.64
[1], x2 = 0.7624 | – | 948.68
[1], x2 = 0.821 | – | 934.76
[1], x2 = 0.8802 | – | 920.71
[1], x2 = 0.9398 | – | 906.62
[2], x2 = 0.0614 | -0.00275 | –
[2], x2 = 0.1294 | -0.00724 | –
[2], x2 = 0.1998 | -0.0131 | –
[2], x2 = 0.2674 | -0.0218 | –
[2], x2 = 0.3309 | -0.0293 | –
[2], x2 = 0.3925 | -0.039 | –
[2], x2 = 0.4407 | -0.0473 | –
[2], x2 = 0.4897 | -0.0533 | –
[2], x2 = 0.5404 | -0.0542 | –
[2], x2 = 0.5969 | -0.0539 | –
[2], x2 = 0.6592 | -0.0513 | –
[2], x2 = 0.7249 | -0.0461 | –
[2], x2 = 0.795 | -0.0386 | –
[2], x2 = 0.8656 | -0.028 | –
[2], x2 = 0.9356 | -0.0149 | –

CCCCCOC=O [pentyl methanoate] + ClCCCCl
Settings | excess molar enthalpy, [2] [kcal/mol] | mass density, [1] [kg/m3]
x1 = 0.0471 | – | 1159.68
x1 = 0.0477 | -0.00664 | –
x1 = 0.0911 | – | 1142.71
x1 = 0.1093 | -0.0151 | –
x1 = 0.1377 | – | 1125.33
x1 = 0.1729 | -0.0245 | –
x1 = 0.1848 | – | 1108.29
x1 = 0.2341 | – | 1091.1
x1 = 0.2358 | -0.0341 | –
x1 = 0.2905 | -0.0437 | –
x1 = 0.3403 | – | 1056.06
x1 = 0.3427 | -0.0529 | –
x1 = 0.3933 | -0.0605 | –
x1 = 0.4528 | – | 1021.65
x1 = 0.4564 | -0.0661 | –
x1 = 0.5122 | -0.0678 | 1004.48
x1 = 0.5719 | -0.0682 | –
x1 = 0.5737 | – | 987.37
x1 = 0.6379 | – | 970.23
x1 = 0.6452 | -0.0655 | –
x1 = 0.7034 | – | 953.41
x1 = 0.7254 | -0.0585 | –
x1 = 0.7721 | – | 936.49
x1 = 0.8109 | -0.045 | –
x1 = 0.8438 | – | 919.53
x1 = 0.9161 | -0.0244 | –
x1 = 0.9188 | – | 902.44

CCCCCOC=O [pentyl methanoate] + ClCCCl
Settings | excess molar enthalpy [kcal/mol] | mass density [kg/m3]
[1], x1 = 0.0396 | – | 1221.77
[1], x1 = 0.0779 | – | 1199.93
[1], x1 = 0.1181 | – | 1178.31
[1], x1 = 0.1601 | – | 1156.97
[1], x1 = 0.2047 | – | 1135.53
[1], x1 = 0.2505 | – | 1114.67
[1], x1 = 0.3008 | – | 1093.1
[1], x1 = 0.3529 | – | 1072.02
[1], x1 = 0.4074 | – | 1051.23
[1], x1 = 0.4655 | – | 1030.4
[1], x1 = 0.5288 | – | 1009.11
[1], x1 = 0.5948 | – | 988.32
[1], x1 = 0.6639 | – | 967.94
[1], x1 = 0.7399 | – | 946.95
[1], x1 = 0.8201 | – | 926.19
[1], x1 = 0.906 | – | 905.54
[2], x1 = 0.0406 | -0.0082 | –
[2], x1 = 0.0934 | -0.0198 | –
[2], x1 = 0.1501 | -0.0337 | –
[2], x1 = 0.2054 | -0.0459 | –
[2], x1 = 0.2613 | -0.0583 | –
[2], x1 = 0.3157 | -0.0674 | –
[2], x1 = 0.3653 | -0.0765 | –
[2], x1 = 0.4153 | -0.08382 | –
[2], x1 = 0.4604 | -0.08886 | –
[2], x1 = 0.5014 | -0.09156 | –
[2], x1 = 0.5593 | -0.0925 | –
[2], x1 = 0.6338 | -0.08788 | –
[2], x1 = 0.7235 | -0.075 | –
[2], x1 = 0.8158 | -0.055 | –
[2], x1 = 0.9141 | -0.0302 | –

ClCCCCCCCl [1,6-dichlorohexane] + COC=O
Settings | excess molar enthalpy [kcal/mol] | mass density [kg/m3]
[1], x2 = 0.1205 | – | 1057.33
[1], x2 = 0.2277 | – | 1050.93
[1], x2 = 0.3234 | – | 1044.52
[1], x2 = 0.4146 | – | 1037.85
[1], x2 = 0.4858 | – | 1032.03
[1], x2 = 0.555 | – | 1025.73
[1], x2 = 0.6169 | – | 1019.68
[1], x2 = 0.6713 | – | 1013.87
[1], x2 = 0.7244 | – | 1007.71
[1], x2 = 0.7696 | – | 1002.16
[1], x2 = 0.811 | – | 996.6
[1], x2 = 0.8479 | – | 991.36
[1], x2 = 0.8838 | – | 986.03
[1], x2 = 0.9163 | – | 980.96
[1], x2 = 0.9461 | – | 976
[1], x2 = 0.9737 | – | 970.7
[2], x2 = 0.0953 | 0.058 | –
[2], x2 = 0.2199 | 0.1098 | –
[2], x2 = 0.3324 | 0.1456 | –
[2], x2 = 0.4307 | 0.1664 | –
[2], x2 = 0.5033 | 0.1742 | –
[2], x2 = 0.5596 | 0.1754 | –
[2], x2 = 0.5977 | 0.1763 | –
[2], x2 = 0.6601 | 0.173 | –
[2], x2 = 0.7167 | 0.1668 | –
[2], x2 = 0.7749 | 0.1558 | –
[2], x2 = 0.8296 | 0.1374 | –
[2], x2 = 0.8855 | 0.113 | –
[2], x2 = 0.935 | 0.0781 | –
[2], x2 = 0.974 | 0.0416 | –

ClCCCCl [1,3-dichloropropane] + COC=O
Settings | excess molar enthalpy [kcal/mol] | mass density [kg/m3]
[1], x2 = 0.0849 | – | 1165.85
[1], x2 = 0.165 | – | 1152.81
[1], x2 = 0.244 | – | 1139.5
[1], x2 = 0.3177 | – | 1126.33
[1], x2 = 0.386 | – | 1113.56
[1], x2 = 0.4563 | – | 1099.9
[1], x2 = 0.5138 | – | 1088.31
[1], x2 = 0.5789 | – | 1074.43
[1], x2 = 0.635 | – | 1062.04
[1], x2 = 0.688 | – | 1049.82
[1], x2 = 0.7384 | – | 1037.54
[1], x2 = 0.7876 | – | 1025.35
[1], x2 = 0.8341 | – | 1013.43
[1], x2 = 0.878 | – | 1001.59
[1], x2 = 0.9206 | – | 989.81
[1], x2 = 0.9607 | – | 978.24
[2], x2 = 0.0855 | 0.0211 | –
[2], x2 = 0.2024 | 0.0493 | –
[2], x2 = 0.3078 | 0.0673 | –
[2], x2 = 0.4178 | 0.0803 | –
[2], x2 = 0.4624 | 0.08236 | –
[2], x2 = 0.4877 | 0.0832 | –
[2], x2 = 0.5024 | 0.08372 | –
[2], x2 = 0.5476 | 0.0843 | –
[2], x2 = 0.5583 | 0.08203 | –
[2], x2 = 0.5978 | 0.0807 | –
[2], x2 = 0.6499 | 0.078 | –
[2], x2 = 0.7069 | 0.0738 | –
[2], x2 = 0.7674 | 0.0679 | –
[2], x2 = 0.8297 | 0.0585 | –
[2], x2 = 0.893 | 0.0448 | –
[2], x2 = 0.9533 | 0.0246 | –
